Experimental data taken from ChEMBL document CHEMBL5608201, “Discovery and optimization of thiazole-based quorum sensing inhibitors as potent blockers of Pseudomonas aeruginosa pathogenicity” (Eur J Med Chem, 2024).
pIC50: −log10 of the molar value. ≈ marks a conversion by molar mass, not a printed value.

Columns and labels:
[1] = target: Cytochrome P450 2D6 (Homo sapiens, UniProt P10635); experiment: Inhibition of CYP2D6 (unknown origin); assay type: ADME
[2] = target: Cytochrome P450 3A4 (Homo sapiens, UniProt P08684); experiment: Inhibition of CYP3A4 (unknown origin); assay type: ADME
Chain of Cytochrome P450 3A4 (P08684 whole entry): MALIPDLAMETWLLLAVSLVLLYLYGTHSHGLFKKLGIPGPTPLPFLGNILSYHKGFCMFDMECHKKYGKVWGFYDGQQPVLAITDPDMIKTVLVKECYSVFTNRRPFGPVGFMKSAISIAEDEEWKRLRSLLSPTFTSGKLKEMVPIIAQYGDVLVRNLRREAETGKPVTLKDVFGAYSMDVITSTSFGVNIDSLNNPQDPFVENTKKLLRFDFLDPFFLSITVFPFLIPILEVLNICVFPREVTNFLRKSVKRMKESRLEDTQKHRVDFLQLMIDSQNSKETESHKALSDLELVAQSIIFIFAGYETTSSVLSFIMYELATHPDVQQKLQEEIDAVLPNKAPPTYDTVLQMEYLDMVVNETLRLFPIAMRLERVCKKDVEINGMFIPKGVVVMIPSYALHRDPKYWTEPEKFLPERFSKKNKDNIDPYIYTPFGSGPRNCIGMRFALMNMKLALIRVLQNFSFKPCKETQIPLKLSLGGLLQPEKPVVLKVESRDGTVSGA

[3] = target: Cytochrome P450 2C19 (Homo sapiens, UniProt P33261); experiment: Inhibition of CYP2C19 (unknown origin); assay type: ADME
Chain of Cytochrome P450 2C19 (P33261 whole entry): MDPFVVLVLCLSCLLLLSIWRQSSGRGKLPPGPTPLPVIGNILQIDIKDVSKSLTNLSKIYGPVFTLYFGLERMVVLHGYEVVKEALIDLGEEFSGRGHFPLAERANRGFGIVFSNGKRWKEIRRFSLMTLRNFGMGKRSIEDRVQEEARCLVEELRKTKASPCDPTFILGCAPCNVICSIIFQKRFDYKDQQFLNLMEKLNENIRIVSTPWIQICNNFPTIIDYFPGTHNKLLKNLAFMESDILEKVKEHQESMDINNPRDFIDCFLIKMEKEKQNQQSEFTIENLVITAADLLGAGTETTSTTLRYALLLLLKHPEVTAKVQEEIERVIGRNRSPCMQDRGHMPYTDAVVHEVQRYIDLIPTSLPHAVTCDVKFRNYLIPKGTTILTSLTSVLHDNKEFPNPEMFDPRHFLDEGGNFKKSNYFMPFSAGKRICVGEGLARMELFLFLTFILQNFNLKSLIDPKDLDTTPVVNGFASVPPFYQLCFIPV

[4] = Cytotoxicity against human HEK293 cells assessed as viable cells at 50 uM relative to control; assay type: toxicity, cell-based; conditions: read-out: Activity
[5] = Plasma protein binding in human; assay type: ADME, cell-free; conditions: read-out: PPB
[6] = target: Cytochrome P450 2C9 (Homo sapiens, UniProt P11712); experiment: Inhibition of CYP2C9 (unknown origin); assay type: ADME
Chain of Cytochrome P450 2C9 (P11712 whole entry): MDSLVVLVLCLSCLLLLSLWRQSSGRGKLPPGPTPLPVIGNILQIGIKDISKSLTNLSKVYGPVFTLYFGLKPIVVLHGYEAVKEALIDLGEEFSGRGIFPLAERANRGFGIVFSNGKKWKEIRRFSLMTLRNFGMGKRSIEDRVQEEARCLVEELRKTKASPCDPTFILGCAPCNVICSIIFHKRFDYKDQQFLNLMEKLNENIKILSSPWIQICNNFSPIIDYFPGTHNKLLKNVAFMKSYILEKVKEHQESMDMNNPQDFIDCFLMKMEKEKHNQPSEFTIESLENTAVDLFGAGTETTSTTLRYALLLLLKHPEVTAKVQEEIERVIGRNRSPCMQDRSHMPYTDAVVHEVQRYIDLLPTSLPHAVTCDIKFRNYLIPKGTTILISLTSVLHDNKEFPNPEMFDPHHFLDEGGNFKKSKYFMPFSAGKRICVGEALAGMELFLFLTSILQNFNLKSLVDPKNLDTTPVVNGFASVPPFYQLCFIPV

[7] = Cytotoxicity against human HEK293 cells assessed as viable cells; assay type: toxicity, cell-based; conditions: read-out: LD50 (the source's name)
[8] = Lipophilicity, log D of the compound; assay type: physicochemical; conditions: octanol/water
[9] = Cytotoxicity against human HepG2 cells assessed as viable cells at 25 uM relative to control; assay type: toxicity, cell-based; conditions: read-out: Activity
[10] = target: T1, CYP1A (Homo sapiens, UniProt P04798+P05177); experiment: Inhibition of CYP1A (unknown origin); assay type: ADME, protein assay
T1 sequence (P04798 whole entry): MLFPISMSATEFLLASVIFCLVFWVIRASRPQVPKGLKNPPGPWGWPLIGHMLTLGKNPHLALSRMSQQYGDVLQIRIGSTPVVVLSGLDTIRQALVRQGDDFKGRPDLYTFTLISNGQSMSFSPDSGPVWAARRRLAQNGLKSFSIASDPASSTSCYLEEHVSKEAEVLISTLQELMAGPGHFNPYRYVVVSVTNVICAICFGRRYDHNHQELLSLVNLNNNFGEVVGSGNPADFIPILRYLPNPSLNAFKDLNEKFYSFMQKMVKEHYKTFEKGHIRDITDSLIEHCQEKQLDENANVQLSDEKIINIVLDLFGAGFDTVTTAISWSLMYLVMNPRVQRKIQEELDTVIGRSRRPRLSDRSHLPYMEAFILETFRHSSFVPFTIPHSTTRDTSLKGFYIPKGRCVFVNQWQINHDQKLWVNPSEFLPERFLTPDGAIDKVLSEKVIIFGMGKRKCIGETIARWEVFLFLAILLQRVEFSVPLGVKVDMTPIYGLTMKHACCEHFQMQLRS
T1 sequence (P05177 whole entry): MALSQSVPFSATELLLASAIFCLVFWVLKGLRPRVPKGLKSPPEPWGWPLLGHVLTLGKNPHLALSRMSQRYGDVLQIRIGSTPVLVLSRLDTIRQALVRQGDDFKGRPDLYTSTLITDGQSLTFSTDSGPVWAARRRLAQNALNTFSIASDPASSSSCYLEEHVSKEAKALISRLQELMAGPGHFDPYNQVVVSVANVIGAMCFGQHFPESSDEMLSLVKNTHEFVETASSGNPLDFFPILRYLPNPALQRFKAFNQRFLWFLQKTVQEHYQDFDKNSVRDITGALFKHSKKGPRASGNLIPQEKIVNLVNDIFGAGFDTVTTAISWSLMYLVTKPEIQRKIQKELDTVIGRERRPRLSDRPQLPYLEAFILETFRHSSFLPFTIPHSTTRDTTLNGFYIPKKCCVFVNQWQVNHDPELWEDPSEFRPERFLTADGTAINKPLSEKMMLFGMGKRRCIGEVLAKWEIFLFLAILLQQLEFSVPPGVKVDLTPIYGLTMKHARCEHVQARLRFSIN

[11] = target: Voltage-gated inwardly rectifying potassium channel KCNH2 (Homo sapiens, UniProt Q12809); experiment: Inhibition of hERG; assay type: toxicity
Chain of Voltage-gated inwardly rectifying potassium channel KCNH2 (Q12809 whole entry): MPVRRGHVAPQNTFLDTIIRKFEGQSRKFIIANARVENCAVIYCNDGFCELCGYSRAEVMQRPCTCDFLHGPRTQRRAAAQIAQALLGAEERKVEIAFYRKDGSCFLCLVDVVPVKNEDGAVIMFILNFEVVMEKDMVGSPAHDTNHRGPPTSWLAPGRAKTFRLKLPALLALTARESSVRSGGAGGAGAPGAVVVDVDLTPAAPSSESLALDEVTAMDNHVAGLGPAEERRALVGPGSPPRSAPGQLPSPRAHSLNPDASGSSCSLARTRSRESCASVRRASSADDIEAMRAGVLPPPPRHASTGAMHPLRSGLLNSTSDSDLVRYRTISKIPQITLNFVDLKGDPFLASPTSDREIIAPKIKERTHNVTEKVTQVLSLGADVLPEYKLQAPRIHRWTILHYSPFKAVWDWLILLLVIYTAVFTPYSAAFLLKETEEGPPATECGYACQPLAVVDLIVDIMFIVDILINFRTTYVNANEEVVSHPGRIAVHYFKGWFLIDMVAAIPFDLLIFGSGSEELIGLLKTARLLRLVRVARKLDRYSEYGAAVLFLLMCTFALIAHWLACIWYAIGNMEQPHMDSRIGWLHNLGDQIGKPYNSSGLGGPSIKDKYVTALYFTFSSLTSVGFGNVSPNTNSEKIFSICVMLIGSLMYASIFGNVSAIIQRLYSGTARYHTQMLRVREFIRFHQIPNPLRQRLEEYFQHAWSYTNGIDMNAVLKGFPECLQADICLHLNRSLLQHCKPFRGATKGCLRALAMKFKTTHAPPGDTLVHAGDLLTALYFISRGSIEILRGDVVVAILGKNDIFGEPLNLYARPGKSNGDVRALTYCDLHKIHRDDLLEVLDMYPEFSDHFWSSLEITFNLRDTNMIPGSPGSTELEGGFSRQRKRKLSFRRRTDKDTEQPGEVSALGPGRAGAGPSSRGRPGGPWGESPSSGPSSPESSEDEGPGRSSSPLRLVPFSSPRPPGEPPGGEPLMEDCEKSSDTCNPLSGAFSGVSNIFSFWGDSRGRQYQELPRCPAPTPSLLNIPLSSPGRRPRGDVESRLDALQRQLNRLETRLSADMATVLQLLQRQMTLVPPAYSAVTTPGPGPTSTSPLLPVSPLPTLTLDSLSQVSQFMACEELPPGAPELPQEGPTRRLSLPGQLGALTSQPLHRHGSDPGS

[12] = target: T2, Transcriptional regulator MvfR (Pseudomonas aeruginosa PA14, UniProt A0A072ZLE6); experiment: Inverse agonist activity at Pseudomonas aeruginosa PqsR extracted from Escherichia coli Dh5alpha co-expressing lacZ incubated with test compound in presence of pseudomonas quinolone signal (PQS) by ONPG/heterologous reporter gene assay
T2 sequence (A0A072ZLE6 whole entry): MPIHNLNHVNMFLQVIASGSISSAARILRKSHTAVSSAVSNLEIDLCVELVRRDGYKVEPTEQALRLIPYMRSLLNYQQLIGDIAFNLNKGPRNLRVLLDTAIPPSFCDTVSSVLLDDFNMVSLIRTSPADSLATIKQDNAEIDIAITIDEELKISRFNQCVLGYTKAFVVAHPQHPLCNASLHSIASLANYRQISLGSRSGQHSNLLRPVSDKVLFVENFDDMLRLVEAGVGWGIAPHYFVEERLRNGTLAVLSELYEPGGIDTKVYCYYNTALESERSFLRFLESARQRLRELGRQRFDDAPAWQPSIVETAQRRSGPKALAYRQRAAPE

[13] = tested on: Pseudomonas aeruginosa; experiment: Antivirulence activity against Pseudomonas aeruginosa PA14 assessed as inhibition of pyocyanin biosynthesis incubated for 16 hrs under agitation by photometric analysis; assay type: functional, organism-based; conditions: PA14, 16 h
[14] = Plasma protein binding in mouse; assay type: ADME, cell-free; conditions: read-out: PPB
[15] = Cytotoxicity against human HepG2 cells assessed as viable cells; assay type: toxicity, cell-based; conditions: read-out: LD50 (the source's name)
[16] = Kinetic aqueous solubility of the compound in PBS buffer incubated for 5 mins by turbidimetric aqueous solubility assay; assay type: physicochemical; conditions: read-out: Kinetic_solubility
[17] = Selectivity ratio of LD50 for Cytotoxicity against human HEK293 cells to IC50 for Inverse agonist activity at Pseudomonas aeruginosa PqsR; assay type: toxicity, cell-based
[18] = Metabolic stability in mouse liver microsomes assessed as half life at 1 uM measured after 30 mins by HPLC-MS/MS analysis; assay type: ADME, Microsome
[19] = Metabolic stability in human liver S9 fraction assessed as half life; assay type: ADME, subcellular
[20] = Cytotoxicity against human HEK293 cells assessed as viable cells at 25 uM relative to control; assay type: toxicity, cell-based; conditions: read-out: Activity

Chain of Cytochrome P450 2D6 (P10635 whole entry): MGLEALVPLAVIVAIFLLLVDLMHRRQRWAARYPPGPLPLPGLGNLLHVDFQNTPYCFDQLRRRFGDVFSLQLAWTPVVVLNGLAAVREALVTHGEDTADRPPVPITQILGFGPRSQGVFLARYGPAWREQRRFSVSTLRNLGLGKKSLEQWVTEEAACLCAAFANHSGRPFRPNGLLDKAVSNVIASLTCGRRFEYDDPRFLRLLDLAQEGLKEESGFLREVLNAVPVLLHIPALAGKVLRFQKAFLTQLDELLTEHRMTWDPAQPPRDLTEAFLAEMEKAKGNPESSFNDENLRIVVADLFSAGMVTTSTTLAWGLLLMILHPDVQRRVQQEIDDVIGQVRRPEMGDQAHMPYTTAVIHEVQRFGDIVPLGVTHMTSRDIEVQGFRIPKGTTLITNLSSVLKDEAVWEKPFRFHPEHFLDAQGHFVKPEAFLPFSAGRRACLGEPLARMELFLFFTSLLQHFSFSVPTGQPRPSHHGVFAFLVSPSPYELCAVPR

| Compound | pIC50 [1] | pIC50 [2] | pIC50 [3] | viability at 50 µM [4] [%] | fraction unbound [5] | pIC50 [6] | CC50 [7] [µM] | logD [8] | viability at 25 µM [9] [%] | pIC50 [10] | pIC50 [11] | pIC50 [12] | pIC50 [13] | fraction unbound [14] | CC50 [15] [µM] | solubility kinetic at 5 min [16] [µM] | selectivity ratio [17] | half-life at 1 µM [18] [min] | half-life [19] [min] | viability at 25 µM [20] [%] |
| --- | --- | --- | --- | --- | --- | --- | --- | --- | --- | --- | --- | --- | --- | --- | --- | --- | --- | --- | --- | --- |
| CC(C)Oc1ccc(-c2ncc(CNc3ccnc(C#N)c3)s2)cc1Cl | < 4.60 | < 4.60 | 4.67 | 51 | < 0.01 | < 4.60 | ~50 | 4.83 | 59 | < 4.60 | 4.88 | 8.30 | 7.01 | < 0.01 | > 25 | 7 (≈ 2.69 µg/mL) | 10000 | 11 | > 60 | – |
| CC(C)Oc1ccc(-c2ncc(CNc3ccnc(C(F)(F)F)c3)s2)cc1Cl | < 4.60 | < 4.60 | 4.77 | – | < 0.01 | 4.79 | ~25 | 4.51 | 49 | < 4.60 | < 4.60 | 8.10 | 6.97 | < 0.01 | ~25 | 7 (≈ 3 µg/mL) | – | 20 | > 60 | 51 |
